# Data taken from patent publication US9066880B2, “Use of dihydrodehydrodiisoeugenol and preparations comprising dihydrodehydrodiisoeugenol” (SYMRISE AG, priority 2010, dated 2015).
# Assays:
# [1] = test system: 3T3-L1-cells (mouse embryonic fibroblast-like preadipocytes cell line); assay: Quantification of intracellular lipids (stimulation of adipogenesis), Nile Red; assay type: cell-based; design: Stimulation of adipogenesis: unit not given here; conditions: for Stimulation of adipogenesis: applied day −2 to day 2, Nile Red at day 10, vs hormone mix only
# Protocol: 3T3-L1-cells (mouse embryonic fibroblast-like preadipocytes cell line) were propagated in Dulbecco's Modified Eagle Medium (DMEM), enriched with 10% newborn calf serum (CS) at 37° C. and 5% CO2 and seeded in 48-well plates for lipid quantification. After reaching confluence at day −2 the differentiation was induced by changing medium at day 0 to DMEM with 10% fetal calf serum (FCS) containing a hormone mix (HM) of 1 μg/ml insulin, 0.25 μM dexamethasone (Dex) and 0.5 mM 3-isobutyl-1-methylxanthine (IBMX).
# Compounds of interest such as compound of formula (I) are applied from day −2 (confluence of the cells) until day 2 using various concentrations. Medium is renewed every other day. At day 2, medium consisting of DMEM, 10% FCS and 1 μg/ml insulin is added. From day 4 on, only DMEM containing 10% FCS is used for further cultivation of cells. At day 10, quantification of the intracellular lipid droplets is performed by addition of the fluorescent dye Nile Red (9-diethylamino-5H-benzo[alpha]phenoxazine-5-one) for 20 minutes at 37° C. and 5% CO2. Fluorescence (RFU) is detected with excitation at 485 nm and emission at 535 nm.
# Stimulation of the adipogenesis in the presence of the compounds of interest is calculated according to the following equation:
# [formula] wherein • RFU test substance=Relative Fluorescence Units of the wells with test substance and with cells • RFU control=Relative Fluorescence Units of the wells stimulated with hormone mix only. • RFU without cells=Relative Fluorescence Units of the wells containing Nile Red only, without cells.
# [2] = test system: 3T3-L1-cells (mouse embryonic fibroblast-like preadipocytes cell line); assay: Lipolysis assay (in vitro), free glycerol in supernatant; assay type: cell-based; conditions: for Relative lipolysis compared to basal lipolysis: added at day 10 for 20 hours, basal lipolysis = 100%
# Protocol: 3T3-L1-cells (mouse embryonic fibroblast-like preadipocytes cell line) were propagated in Dulbecco's Modified Eagle Medium (DMEM), enriched with 10% newborn calf serum (CS) at 37° C. and 5% CO2 and seeded in 48-well plates for lipolysis. After reaching confluence at day −2 the differentiation was induced by changing medium at day 0 to DMEM with 10% fetal calf serum (FCS) containing a hormone mix (HM) of 1 μg/ml insulin, 0.25 μM dexamethasone (Dex) and 0.5 mM 3-isobutyl-1-methylxanthine (IBMX). Medium is renewed every other day. At day 2, medium consisting of DMEM, 10% FCS and 1 μg/ml insulin is added. From day 4 on, only DMEM containing 10% FCS is used for further cultivation of cells. For determination of lipolysis, compounds of interest are added at day 10 for 20 hours mixed with bovine serum albumin (BSA). If lipolysis occurs, cells secrete glycerol into the supernatant. Therefore, supernatants are harvested and determination of lipolysis is performed by using a free glycerol reagent. The quantification of the free glycerol is carried out on the basis of an enzymatic method with a free glycerol reagent.
# The lipolysis in the presence of the test substances is calculated according to the following equation:
# [formula] wherein • A test substance=absorption of the wells with test substance and with cells • A control=absorption of the wells without test substance, but with cells • A control without cells=absorption of the wells without test substance and without cells
# [3] = test system: peroxisome proliferator-activated receptor γ2 (PPARγ2); assay: Real Time-PCR, expression of differentiation marker PPARγ2 in 3T3-L1-cells; assay type: cell-based, mouse; conditions: fold induction compared to hormone mix stimulation (set equal to one)
# Protocol: (§1) 3T3-L1-cells (mouse embryonic fibroblast-like preadipocytes cell line) were propagated in Dulbecco's Modified Eagle Medium (DMEM), enriched with 10% newborn calf serum (CS) at 37° C. and 5% CO2 and seeded in 12-well plates for gene expression analysis. After reaching confluence at day −2, the differentiation was induced by changing medium at day 0 to DMEM with 10% fetal calf serum (FCS) containing a hormone mix (HM) of 1 μg/ml insulin, 0.25 μM dexamethasone (Dex) and 0.5 mM 3-isobutyl-1-methylxanthine (IBMX). Compounds of interest such as compound of formula (I) are applied from day −2 (confluence of the cells) until day 2 using various concentrations. Medium is renewed every other day. At day 2, medium consisting of DMEM, 10% FCS and 1 μg/ml insulin is added. From day 4 on, only DMEM containing 10% FCS is used for further cultivation of cells. […]
# (§2) Total RNA from cell culture samples was isolated using RNeasy Total RNA Kits (Qiagen, Hilden; Germany). The RNA concentration and purity was determined photometrically using 260/280 ratios (Biophotometer, Eppendorf, Hamburg, Germany). […] At least three independent experiments were performed with 2 determinations each and the mean value of these was calculated. […] Each sample was analyzed in duplicate employing the universal protocol over 46 cycles. […]
# adiponectin = assay: Real Time-PCR, expression of differentiation marker adiponectin in 3T3-L1-cells; assay type: cell-based, mouse; conditions: fold induction compared to hormone mix stimulation (set equal to one)
# Protocol: as §1, §2
# [4] = test system: CCAAT enhancer binding protein α (C/EBPα); assay: Real Time-PCR, expression of differentiation marker C/EBPα in 3T3-L1-cells; assay type: cell-based, mouse; conditions: fold induction compared to hormone mix stimulation (set equal to one)
# Protocol: as §1, §2
# [5] = test system: fatty acid binding protein 4 (FABP4); assay: Real Time-PCR, expression of differentiation marker FABP4 in 3T3-L1-cells; assay type: cell-based, mouse; conditions: fold induction compared to hormone mix stimulation (set equal to one)
# Protocol: as §1, §2
# [6] = test system: Preadipocyte factor 1 (Pref1); assay: Real Time-PCR, expression of preadipocytes marker Pref-1 in 3T3-L1-cells; assay type: cell-based, mouse; conditions: relative to hormone mix stimulation (set equal to one)
# Protocol: as §1, §2
# Cyclooxygenase-2 (COX-2) = biological target: T1, Cyclooxygenase-2 (COX-2) (Homo sapiens, UniProt P35354); assay: COX-2-Assay (in vitro), fluorometric ADHP/resorufin; assay type: biochemical; conditions: average of at least 2 independent experiments
# T1 sequence (P35354 18-604): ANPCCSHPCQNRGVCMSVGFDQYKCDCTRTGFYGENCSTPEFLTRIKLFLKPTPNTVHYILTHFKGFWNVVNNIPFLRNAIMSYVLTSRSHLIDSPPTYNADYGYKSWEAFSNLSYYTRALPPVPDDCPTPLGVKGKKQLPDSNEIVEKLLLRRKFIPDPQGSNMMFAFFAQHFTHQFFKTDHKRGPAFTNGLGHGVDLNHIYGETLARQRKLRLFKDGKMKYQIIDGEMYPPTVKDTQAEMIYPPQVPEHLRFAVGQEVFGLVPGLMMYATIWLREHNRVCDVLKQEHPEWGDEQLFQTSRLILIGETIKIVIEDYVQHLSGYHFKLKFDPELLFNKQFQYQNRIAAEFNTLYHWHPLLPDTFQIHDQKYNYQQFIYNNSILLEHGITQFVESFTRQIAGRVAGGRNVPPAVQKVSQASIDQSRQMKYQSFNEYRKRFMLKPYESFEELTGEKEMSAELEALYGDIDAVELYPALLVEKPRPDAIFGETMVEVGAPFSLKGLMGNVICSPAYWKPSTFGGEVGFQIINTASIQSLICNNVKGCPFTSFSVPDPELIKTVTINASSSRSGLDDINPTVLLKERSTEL
# Text: Cyclooxygenase-2 (COX-2) in the presence of test substance is mixed with the fluorometric substrate 10-acetyl-3,7-dihydroxyphenoxanin (ADHP) and Heme. The reaction is started by addition of the substrate arachidonic acid.
# COX-2 converts the arachidonic acid into the prostaglandin endoperoxide G2 (PGG2). PGG2 is reduced to the corresponding alcohol PGH2. During this reaction ADHP results in fluorescent resorufin. Resorufin is quantified at an extinction wavelength of 535 nm and an emission wavelength of 590 nm.
# [formula] where • Resorufin test substance=Resorufin concentration of the wells with test substance and with COX-2 • Resorufin control=Resorufin concentration of the wells without test substance, but with COX-2 • Resorufin control without COX-2=Resoruf in concentration of the wells without test substance and without COX-2
# From the inhibition of the COX-2[%] in a series of dilutions of tested samples the IC50 is calculated. This is the concentration at which the activity of the COX-2 is inhibited by 50%.
# [7] = ABTS-Assay (in vitro), anti-oxidative capacity; conditions: photometric at 734 nm, average of at least 2 independent experiments
# Protocol: With the help of the ABTS-assay the anti-oxidative capacity of test substances is measured. 2,2′-azino bis-(3-ethylbenzothiazoline 6-sulfonic acid) (ABTS) is transformed by potassium persulfate into the blue-green radical cation ABTS•+. Through the addition of antioxidants (test substance) the radical cations are reduced and discoloration takes place, which is determined photometrically at 734 nm.
# [formula] A test substance=absorption of the wells with test substance • A control=absorption of the wells without test substance
# From the inhibition of the radical formation [%] in a series of dilutions of tested samples the IC50 is calculated. This is the concentration at which the radical formation is inhibited by 50%.
smiles,measurement,setting,value
"C[C@H]1CC[C@@]2(OC1)O[C@H]1C[C@H]3[C@@H]4CC[C@@H]5C[C@@H](O)CC[C@]5(C)[C@H]4CC[C@]3(C)[C@H]1[C@@H]2C [sarsasapogenin, reference compound]",Stimulation of adipogenesis,[1]; 10 μM,27
same,Stimulation of adipogenesis,[1]; 20 μM,17
same,Effect on adipogenesis (in words),[1]; experiments have shown,stimulating the adipogenesis
same,Relative lipolysis compared to basal lipolysis,[2]; 10 μM,99% ± 3.3
same,Relative lipolysis compared to basal lipolysis,[2]; 20 μM,106% ± 3.5
same,Effect on lipolysis in differentiated adipocytes (in words),[2]; experiments have shown,no effect on the lipolysis
"CCCc1cc(OC)c2c(c1)C(C)C(c1ccc(O)c(OC)c1)O2 (centres unmarked) [compound of formula (I), 2-Methoxy-4-(7-methoxy-3-methyl-5-propyl-2,3-dihydro-benzofuran-2-yl)-phenol]",Stimulation of adipogenesis,[1]; 0.01 μM,18
same,Stimulation of adipogenesis,[1]; 0.1 μM,30
same,Stimulation of adipogenesis,[1]; 0.25 μM,35
same,Stimulation of adipogenesis,[1]; 0.5 μM,38
same,Stimulation of adipogenesis,[1]; 0.75 μM,48
same,Stimulation of adipogenesis,[1]; 1 μM,49
same,Stimulation of adipogenesis,[1]; 2.5 μM,48
same,Stimulation of adipogenesis,[1]; 5 μM,37
same,Stimulation of adipogenesis,[1]; 10 μM,22
same,"Stimulation of expression at day 2, PPARγ2",[3]; 1 μM,1.0
same,"Stimulation of expression at day 2, PPARγ2",[3]; 10 μM,1.5
same,"Stimulation of expression at day 2, Adiponectin",adiponectin; 1 μM,1.4
same,"Stimulation of expression at day 2, Adiponectin",adiponectin; 10 μM,2.2
same,"Stimulation of expression at day 2, C/EBPα",[4]; 1 μM,1.1
same,"Stimulation of expression at day 2, C/EBPα",[4]; 10 μM,2.2
same,"Stimulation of expression at day 2, FABP4",[5]; 1 μM,2.1
same,"Stimulation of expression at day 2, FABP4",[5]; 10 μM,3.3
same,"Relative expression at day 2, Pref-1",[6]; 1 μM,0.3
same,"Relative expression at day 2, Pref-1",[6]; 10 μM,0.7
same,Relative lipolysis compared to basal lipolysis,[2]; 1 μM,85% ± 1.6
same,Relative lipolysis compared to basal lipolysis,[2]; 10 μM,85% ± 1.5
same,IC50 calculated from the inhibition of COX-2,Cyclooxygenase-2 (COX-2),12.3 ppm
same,IC50 calculated from the inhibition of radical formation,[7],11.0 ppm
